# Assay results published in US20230265524A1, “IMMUNOGENIC RETROELEMENTS AND THEIR USE IN CANCER THERAPY” (UNIVERSITY HEALTH NETWORK, priority 2020, published 2023).
# Legend:
# [1] = system: patient-derived CRC cells; assay: in vitro sphere initiation assay followed by limiting dilution analysis (LDA); assay type: cell-based, human; settings: ADAR1-depleted CRC cells treated with 5-AZA-CdR
# Method: B, The normalized percentage of reduction in sphere forming ability was calculated in each condition compared to Mock-treated.
# (§1) One of the major challenges facing conventional chemotherapy is the persistence of cancer initiating cells (CICs), often resulting in relapse^38-40. We and others have previously shown that 5-AZA-CdR treatment can target colorectal cancer CICs by inducing the viral mimicry response^1,41. We therefore tested whether ADAR1^KD by itself or in combination with 5-AZA-CdR can decrease tumour initiation. To this end, we first employed an in vitro sphere initiation assay followed by limiting dilution analysis (LDA) using patient-derived CRC cells. […] In addition, we performed in vivo tumour initiation assays by injecting serially diluted patient-derived CRC cells into NSG immunodeficient mice and inspected tumour engraftment for up to 6 months after injection (FIG. 12F).
# MAVS = MAVS aggregation by SDS-AGE; assay type: cell-based, human; settings: ADAR1-depleted, mitochondrial fraction of cell lysates
# Description: J, MAVS aggregation analyzed by SDS-AGE and MAVS protein level analyzed by SDS-PAGE. VDAC served as a loading control in SDS-PAGE.
# Based on these findings, we hypothesized that ADAR1 depletion would synergize with the viral mimicry response induced by DNMTi treatment. To assess how ADAR1 depletion affects 5-AZA-CdR treated samples, we performed RNA-seq analyses in patient-derived CRC cells. […] As a molecular read-out of dsRNA pattern recognition activation, we measured MAVS aggregation in the mitochondrial fraction of cell lysates^34. […] Taken together, our findings establish that ADAR1 acts as a negative feedback loop, restricting the viral mimicry response induced by DNMTi treatment in cancer cells.
# ADAR1 [2] = assay: genome-wide A-to-I editing loci counts in Alus (RNA-seq); assay type: cell-based, human
# Description: G, Genome-wide A-to-I editing loci counts in Alus in the RNA-seq data performed in the total cytoplasmic fraction (‘Total CytoRNA’) and in the MDA5-protected fraction (‘MDA5-protected’) at the mock-treated (MT) ADAR1^WT, 5-AZA-CdR-treated ADAR1^WT, mock-treated ADAR1^KD, and 5-AZA-CdR-treated ADAR1^KD conditions.
# (§2) Next, we tested whether epigenetic therapy can induce and activate ADAR1 editing activity.
# [3] = system: H3K4me3 and H3K27ac upstream of treatment-induced IR-Alus; assay: genome-wide CUT&RUN of H3K4me3 and H3K27ac at treatment-induced IR-Alus; assay type: cell-based, human; settings: DNMTi treatment
# Description: D, Heatmaps and average CUT & RUN profiles of H3K4me3 (left) and H3K27ac (right) signal at −50 kb/+50 kb (Upstream/downstream) of the Treatment-induced IR-Alu pairs regions. The orientation was based on the transcriptional orientation in the MDA5-protected RNA-seq data
# Active promoters and enhancers are often marked by H3K4me3 and H3K27ac, respectively. […] Importantly, we assessed the DNA methylation status of these specific regulatory regions that became H3K4me3 marked upstream of the induced IR-Alus following epigenetic therapy and found the majority of these regions to be frequently methylated before treatment. We observed that 91% of these regions were either partially or fully methylated in the panel of 51 CRC cell lines (FIG. 6C) and 94% in the panel of 988 pan-cancer cell lines (FIG. 6D). Moreover, we observed that the DNA methylation status of these regulatory regions upstream of induced IR-Alus were inversely correlated (r=−0.23, p=7.58-13) with the expression of a panel of Interferon-Stimulated Genes (n=22 ISGs) from our viral mimicry signature^1 across the 988 pan-cancer cell lines (FIG. 6E).
# [4] = system: patient-derived CRC cells; assay: in vivo LDA measuring tumour-initiation potential; design: species or system NSG mice
# Method: F Schematic representation of in vivo LDA measuring tumour-initiation potential. NSG mice were injected with 10,000 cells (n=8 tumours), 1,000 cells (n=8 tumours), 100 cells (n=8 tumours) and 10 cells (n=16 tumours).
# G, Tumour-initiating cell frequency from the in vivo LDA of patient-derived CRC cells for each condition. ADAR1WT 5-AZA-CdR vs ADAR1KDA 5-AZA-CdR P=0.00862; ADAR1WT 5-AZA-CdR vs ADAR1KDB 5-AZA-CdR P=0.009; chi-square test.
# as §1
# ADAR1 [5] = assay: qPCR analysis of ADAR1 mRNA level and isoforms; assay type: cell-based, human
# Method: C, qPCR analysis of total ADAR1 mRNA level after treatment with 5-AZA-CdR (300 nM, for 5 days) or transfection with 100 ng ml-1 poly(I:C) over a course of 24 days. Cells were washed out at day 5 and seeded in drug-free medium. Data are mean±s.e.m.****P<0.0001, Sidak-corrected two-way ANOVA.
# A, ADAR1 isoforms (p110 and p150) relative expression analysed by qPCR. LACZ denotes ADAR1WT; PIC denotes 100 ng/ml poly (I:C) for 5 days; AZA denotes 300 nM 5-AZA-CdR for 5 days). Data are mean±s.e.m. (n=3 from three independent experiments). ***P<0.001, ****P<0.0001, Tukey-corrected two-way ANOVA.
# To test this hypothesis, we first determined if ADAR1 depletion affects dsRNA formation by IR-Alus in untreated patient-derived CRCs. We generated ADAR1 knock-down CRCs using two different hairpin RNAs (ADAR1^KDA/B) and confirmed depletion of both the constitutively expressed (p110) and interferon-inducible (p150) ADAR1 isoforms (FIG. 8A). […] To determine if MDA5 ligands also increase upon ADAR1 depletion, we performed the MDA5 protection assay followed by RNA-Seq, as above. […] Again, these immunogenic Alus were primarily IR-Alu pairs unidirectionally transcribed in either the sense (+/+) or antisense (−/−) direction and induced upon ADAR1 depletion (FIG. 9C-J).
# as §2
smiles,measurement,setting,value
Nc1ncn([C@H]2C[C@H](O)[C@@H](CO)O2)c(=O)n1 [5-AZA-CdR],spheroid forming potential,[1],reduced the spheroid forming potential
same,MAVS activation (aggregation),MAVS,enhanced MAVS activation
same,A-to-I editing of MDA5-protected Alus,ADAR1 [2]; ADAR1-depleted cells,depletion of ADAR1 abrogated this effect
same,A-to-I editing of MDA5-protected Alus,ADAR1 [2]; ADAR1 WT cells,genome-wide increased A-to-I editing
same,H3K4me3 and H3K27ac levels directly upstream of treatment-induced immunogenic IR-Alus,[3],"elevated levels of H3K4me3, but not H3K27ac"
same,Number of Engrafted tumours/number of injected tumours,"[4]; ADAR1^KDA, 10 cells injected",0/16
same,Number of Engrafted tumours/number of injected tumours,"[4]; ADAR1^KDA, 100 cells injected",0/8
same,Number of Engrafted tumours/number of injected tumours,"[4]; ADAR1^KDA, 1,000 cells injected",3/8
same,Number of Engrafted tumours/number of injected tumours,"[4]; ADAR1^KDA, 10,000 cells injected",5/8
same,tumour engraftment potential,"[4]; ADAR1^KDA/B cells relative to wild-type, up to 6 months",substantially reduced tumour engraftment potential
same,Number of Engrafted tumours/number of injected tumours,"[4]; ADAR1^KDB, 10 cells injected",0/16
same,Number of Engrafted tumours/number of injected tumours,"[4]; ADAR1^KDB, 100 cells injected",0/8
same,Number of Engrafted tumours/number of injected tumours,"[4]; ADAR1^KDB, 1,000 cells injected",1/8
same,Number of Engrafted tumours/number of injected tumours,"[4]; ADAR1^KDB, 10,000 cells injected",6/8
same,Number of Engrafted tumours/number of injected tumours,"[4]; ADAR1^WT, 10 cells injected",0/16
same,Number of Engrafted tumours/number of injected tumours,"[4]; ADAR1^WT, 100 cells injected",3/8
same,Number of Engrafted tumours/number of injected tumours,"[4]; ADAR1^WT, 1,000 cells injected",5/8
same,Number of Engrafted tumours/number of injected tumours,"[4]; ADAR1^WT, 10,000 cells injected",7/8
same,ADAR1 expression,"ADAR1 [5]; patient-derived CRCs, 300 nM for 5 days",up-regulated ADAR1 expression
same,duration of ADAR1 up-regulation after drug withdrawal,"ADAR1 [5]; washed out at day 5, drug-free medium, 24 days course",sustained for about fourteen days after drug withdrawal
